Source: patent US9522888B2, “Substituted bicyclic compounds” (BRISTOL-MYERS SQUIBB COMPANY, priority 2014, dated 2016)

Tests used:
hS1P1/CHO cells = hS1P1/CHO cells (Homo sapiens (Human), UniProt P21453); experiment: hS1P1 ERK phosphorylation (S1P1 pERK); assay type: cell-based; conditions: phosphate examples
Method in brief: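 CHO cells expressing human S1P1, serum-starved 2 h, exposed to compound in HBSS/20 mM HEPES for 7 min at 37° C. Lysates assayed for phospho-ERK by SureFire kit; response given as % activation relative to 10 μM S1P.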

[1] = target: S1P1 (membranes prepared from S1P1/CHO cells) (Homo sapiens (Human), UniProt P21453); experiment: Receptor [35S] GTPγS binding assay (S1P1 GTPγS); assay type: biochemical; conditions: phosphate examples; read-out: S1P1 GTPγS
Method in brief: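 Membranes from S1P1-expressing CHO cells (3 μg protein/well) incubated with compound (11-point, 3-fold dilution) and 0.2 nM final [35S]GTPγS, 45 min at room temperature. Assay buffer: 20 mM HEPES pH 7.5, 10 mM MgCl2, 150 mM NaCl, 10 μM GDP, 0.1% fatty-acid-free BSA, 10 μg/ml saponin. Filter-bound radioactivity counted by scintillation; EC50 derived.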

[2] = target: S1P3 (membranes prepared from EDG3-Gal5-bla HEK293T cells) (Homo sapiens (Human), UniProt Q99500); experiment: Receptor [35S] GTPγS binding assay (S1P3 GTPγS); assay type: biochemical; conditions: phosphate examples; read-out: S1P3 GTPγS
Method in brief: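 Membranes (3 μg protein/well) from S1P1/CHO cells or EDG3-Gal5-bla HEK293T cells (S1P3) were incubated 45 min at room temperature with 0.2 nM final [35S]GTPγS in HEPES pH 7.5 buffer with 10 μM GDP, MgCl2 and saponin. Bound label counted after filtration; EC50 from 11-point, 3-fold dilutions.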

human S1P1 = human S1P1 (Homo sapiens (Human), UniProt P21453); experiment: S1P1 binding assay (33P-S1P radioligand competition, CHO cell membranes); conditions: phosphate examples; read-out: S1P1 Binding
Method in brief: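 Radioligand is 33P-S1P, competing for membranes from human S1P1-expressing CHO cells. Membranes resuspended in 50 mM HEPES pH 7.5, 100 mM NaCl, 1 mM MgCl2, 2 mM EDTA.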

Sequence of S1P3 (membranes prepared from EDG3-Gal5-bla HEK293T cells) (Q99500 whole entry): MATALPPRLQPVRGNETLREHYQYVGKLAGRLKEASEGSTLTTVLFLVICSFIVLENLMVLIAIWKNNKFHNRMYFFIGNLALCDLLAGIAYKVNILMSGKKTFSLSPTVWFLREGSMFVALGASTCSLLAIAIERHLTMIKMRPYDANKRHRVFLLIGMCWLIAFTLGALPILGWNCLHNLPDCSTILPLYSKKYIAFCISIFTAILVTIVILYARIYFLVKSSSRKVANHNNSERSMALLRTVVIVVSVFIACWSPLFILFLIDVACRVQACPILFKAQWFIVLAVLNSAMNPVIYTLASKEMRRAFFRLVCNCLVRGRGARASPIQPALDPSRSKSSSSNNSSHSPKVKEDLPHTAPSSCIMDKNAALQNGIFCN
Sequence of hS1P1/CHO cells (P21453 whole entry): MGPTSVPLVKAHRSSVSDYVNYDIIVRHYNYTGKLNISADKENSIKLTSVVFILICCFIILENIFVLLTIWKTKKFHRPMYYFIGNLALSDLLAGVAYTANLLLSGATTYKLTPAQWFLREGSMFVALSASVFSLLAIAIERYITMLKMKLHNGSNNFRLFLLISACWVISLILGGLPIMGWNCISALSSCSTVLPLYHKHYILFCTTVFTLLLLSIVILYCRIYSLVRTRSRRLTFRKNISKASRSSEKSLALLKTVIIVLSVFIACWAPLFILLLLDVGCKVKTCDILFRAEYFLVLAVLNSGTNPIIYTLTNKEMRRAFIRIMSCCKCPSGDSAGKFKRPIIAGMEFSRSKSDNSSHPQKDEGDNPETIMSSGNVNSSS
Sequence of S1P1 (membranes prepared from S1P1/CHO cells) (P21453 whole entry): as above
Sequence of human S1P1 (P21453 whole entry): as above

Compound	EC50 (hS1P1/CHO cells)	EC50 [1]	EC50 [2]	IC50 (human S1P1)
C=CCCOC[C@@H]1CCc2cc([C@H]3CC[C@](N)(COP(=O)(O)O)C3)ccc2C1 [compound 452]	< 10 nM	< 10 nM	> 625 nM	< 10 nM
C=CCCCOC[C@@H]1CCc2cc([C@H]3CC[C@](N)(COP(=O)(O)O)C3)ccc2C1 [compound 454]	< 10 nM	10 to 100 nM	> 625 nM	< 10 nM
CC/C=C\COC[C@@H]1CCc2cc([C@H]3CC[C@](N)(COP(=O)(O)O)C3)ccc2C1 [compound 455]	< 10 nM	< 10 nM	> 625 nM	< 10 nM
CC(C)CCOC[C@@H]1CCc2cc([C@H]3CC[C@](N)(COP(=O)(O)O)C3)ccc2C1 [compound 457]	< 10 nM	10 to 100 nM	> 625 nM	< 10 nM
CC(C)=CCCOC[C@@H]1CCc2cc([C@H]3CC[C@](N)(COP(=O)(O)O)C3)ccc2C1 [compound 461]	< 10 nM	< 10 nM	> 625 nM	< 10 nM
CCCC=CCOC[C@@H]1CCc2cc([C@H]3CC[C@](N)(COP(=O)(O)O)C3)ccc2C1 [compound 462]	< 10 nM	< 10 nM	> 50 nM	< 10 nM
Cc1ccc(OC[C@H]2CCc3cc([C@H]4CC[C@](N)(COP(=O)(O)O)C4)ccc3C2)cc1 [compound 466]	10 to 100 nM	10 to 100 nM	> 625 nM	10 to 100 nM
Cc1ccccc1OC[C@H]1CCc2cc([C@H]3CC[C@](N)(COP(=O)(O)O)C3)ccc2C1 [compound 468]	10 to 100 nM	10 to 100 nM	> 625 nM	< 10 nM
N[C@]1(COP(=O)(O)O)CC[C@H](c2ccc3c(c2)CC[C@@H](COCc2cccs2)C3)C1 [compound 472]	< 10 nM	100 to 1000 nM	> 625 nM	100 to 1000 nM
Cc1ccc(COC[C@@H]2CCc3cc([C@H]4CC[C@](N)(COP(=O)(O)O)C4)ccc3C2)cc1 [compound 474]	< 10 nM	10 to 100 nM	> 625 nM	< 10 nM
COc1ccc(OC[C@@H]2CCc3cc([C@H]4CC[C@](N)(COP(=O)(O)O)C4)ccc3C2)cc1 [compound 476]	10 to 100 nM	10 to 100 nM	> 625 nM	10 to 100 nM
COc1cncc(OC[C@@H]2CCc3cc([C@H]4CC[C@](N)(COP(=O)(O)O)C4)ccc3C2)c1 [compound 477]	< 10 nM	10 to 100 nM	> 625 nM	< 10 nM
COCc1cccc(OC[C@@H]2CCc3cc([C@H]4CC[C@](N)(COP(=O)(O)O)C4)ccc3C2)c1 [compound 480]	100 to 1000 nM	< 10 nM	> 625 nM	1000 to 10000 nM
COc1cccc(COC[C@H]2CCc3cc([C@H]4CC[C@](N)(COP(=O)(O)O)C4)ccc3C2)c1 [compound 481]	< 10 nM	< 10 nM	> 625 nM	< 10 nM
COc1ccc(COC[C@@H]2CCc3cc([C@H]4CC[C@](N)(COP(=O)(O)O)C4)ccc3C2)cc1 [compound 482]	10 to 100 nM	10 to 100 nM	> 625 nM	100 to 1000 nM
COc1cc(OC[C@@H]2CCc3cc([C@H]4CC[C@](N)(COP(=O)(O)O)C4)ccc3C2)ccc1F [compound 485]	10 to 100 nM	10 to 100 nM	> 625 nM	10 to 100 nM
CN(C)Cc1cccc(OC[C@@H]2CCc3cc([C@H]4CC[C@](N)(COP(=O)(O)O)C4)ccc3C2)c1 [compound 490]	10 to 100 nM	100 to 1000 nM	> 625 nM	< 10 nM
COc1ccc(OC[C@@H]2CCc3cc([C@H]4CC[C@](N)(COP(=O)(O)O)C4)ccc3C2)cc1OC [compound 491]	10 to 100 nM	< 10 nM	> 625 nM	< 10 nM
COc1ccc(OC[C@@H]2CCc3cc([C@H]4CC[C@](N)(COP(=O)(O)O)C4)ccc3C2)c(F)c1F [compound 494]	10 to 100 nM	10 to 100 nM	> 625 nM	10 to 100 nM
CN(C)C(=O)c1cccc(OC[C@@H]2CCc3cc([C@H]4CC[C@](N)(COP(=O)(O)O)C4)ccc3C2)c1 [compound 495]	< 10 nM	10 to 100 nM	> 625 nM	10 to 100 nM
Cn1nc(OC[C@@H]2CCc3cc([C@H]4CC[C@](N)(COP(=O)(O)O)C4)ccc3C2)cc1C(F)(F)F [compound 496]	< 10 nM	< 10 nM	> 625 nM	< 10 nM
CC(C)CSC[C@@H]1CCc2cc([C@H]3CC[C@](N)(COP(=O)(O)O)C3)ccc2C1 [compound 504]	< 10 nM	10 to 100 nM	> 625 nM	< 10 nM
CCCCSC[C@H]1CCc2cc([C@@H]3CC[C@](N)(COP(=O)(O)O)C3)ccc2C1 [compound 505]	10 to 100 nM	10 to 100 nM	> 625 nM	10 to 100 nM

Second part, the compound after the results:

EC50 (hS1P1/CHO cells)	EC50 [1]	EC50 [2]	IC50 (human S1P1)	Compound
< 10 nM	10 to 100 nM	> 625 nM	10 to 100 nM	CC(C)=CCOC[C@@H]1CCc2cc([C@H]3CC[C@](N)(COP(=O)(O)O)C3)ccc2C1 [compound 453]
< 10 nM	< 10 nM	> 625 nM	10 to 100 nM	CCC=CCOC[C@@H]1CCc2cc([C@H]3CC[C@](N)(COP(=O)(O)O)C3)ccc2C1 [compound 456]
< 10 nM	10 to 100 nM	> 625 nM	< 10 nM	COCCCOC[C@@H]1CCc2cc([C@H]3CC[C@](N)(COP(=O)(O)O)C3)ccc2C1 [compound 458]
< 10 nM	10 to 100 nM	> 625 nM	< 10 nM	N[C@]1(COP(=O)(O)O)CC[C@H](c2ccc3c(c2)CC[C@H](COc2ccccc2)C3)C1 [compound 459]
10 to 100 nM	< 10 nM	> 625 nM	< 10 nM	CC(C)(C)CCOC[C@@H]1CCc2cc([C@H]3CC[C@](N)(COP(=O)(O)O)C3)ccc2C1 [compound 464]
10 to 100 nM	10 to 100 nM	> 625 nM	10 to 100 nM	Cc1ccc(OC[C@@H]2CCc3cc([C@H]4CC[C@](N)(COP(=O)(O)O)C4)ccc3C2)cc1 [compound 467]
< 10 nM	10 to 100 nM	> 625 nM	10 to 100 nM	Cc1ccccc1OC[C@@H]1CCc2cc([C@H]3CC[C@](N)(COP(=O)(O)O)C3)ccc2C1 [compound 469]
< 10 nM	10 to 100 nM	> 625 nM	100 to 1000 nM	Cc1cccc(OC[C@@H]2CCc3cc([C@H]4CC[C@](N)(COP(=O)(O)O)C4)ccc3C2)c1 [compound 470]
< 10 nM	10 to 100 nM	> 625 nM	< 10 nM	COc1ccccc1OC[C@@H]1CCc2cc([C@H]3CC[C@](N)(COP(=O)(O)O)C3)ccc2C1 [compound 475]
10 to 100 nM	10 to 100 nM	> 625 nM	10 to 100 nM	CC(C)c1cccc(OC[C@@H]2CCc3cc([C@H]4CC[C@](N)(COP(=O)(O)O)C4)ccc3C2)c1 [compound 478]
10 to 100 nM	10 to 100 nM	> 625 nM	100 to 1000 nM	CC(C)c1ccc(OC[C@@H]2CCc3cc([C@H]4CC[C@](N)(COP(=O)(O)O)C4)ccc3C2)cc1 [compound 479]
10 to 100 nM	10 to 100 nM	> 625 nM	100 to 1000 nM	COc1ccc(F)c(OC[C@@H]2CCc3cc([C@H]4CC[C@](N)(COP(=O)(O)O)C4)ccc3C2)c1 [compound 484]
< 10 nM	10 to 100 nM	> 625 nM	< 10 nM	CCc1ccc(COC[C@@H]2CCc3cc([C@H]4CC[C@](N)(COP(=O)(O)O)C4)ccc3C2)s1 [compound 489]
10 to 100 nM	< 10 nM	> 625 nM	< 10 nM	COc1cc(OC[C@@H]2CCc3cc([C@H]4CC[C@](N)(COP(=O)(O)O)C4)ccc3C2)ccc1Cl [compound 493]
< 10 nM	< 10 nM	> 625 nM	10 to 100 nM	N[C@]1(COP(=O)(O)O)CC[C@H](c2ccc3c(c2)CC[C@@H](COc2cccc(OC(F)(F)F)c2)C3)C1 [compound 497]
10 to 100 nM	100 to 1000 nM	> 625 nM	10 to 100 nM	COc1cc(OC[C@@H]2CCc3cc([C@H]4CC[C@](N)(COP(=O)(O)O)C4)ccc3C2)ccc1C(C)(C)C [compound 498]
10 to 100 nM	10 to 100 nM	> 625 nM	< 10 nM	N[C@]1(COP(=O)(O)O)CC[C@H](c2ccc3c(c2)CC[C@@H](COCc2ccc(C(F)(F)F)s2)C3)C1 [compound 499]
< 10 nM	< 10 nM	> 625 nM	< 10 nM	CCCSC[C@@H]1CCc2cc([C@H]3CC[C@](N)(COP(=O)(O)O)C3)ccc2C1 [compound 503]
